“And” between values parts separate entries of the source, which are not always exact repeats. Identical values can stand only once. Like-named read-outs stand apart in the source and are kept apart here.
Legend:
[1] = system: SMN2-linked luciferase-reporter gene construct; assay: SMN splice reporter assay (SMN2-linked luciferase reporter, Example 10); type: cell-based; settings: for maximal fold induction: read-out: SMN Splice Reporter Assay (Example 10) Avg MaxFold Increase
Summary of the method: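 Cervical carcinoma cells stably carrying an SMN2–luciferase splice reporter, in which luciferase is in frame only when SMN2 exon 7 is included, were treated with compound. Luciferase activity was read and expressed as fold increase over untreated transformed cells.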

[2] = system: human GLT-1/EAAT-2 promoter; assay: GLT-1/EAAT-2 promoter luciferase reporter assay in COS-7 cells; type: cell-based; settings: COS-7 pE2P-GL3 (clone 4), 48 h; for maximal fold induction: Homo sapiens, normalized to DMSO control, read-out: Max Fold-Induction
Method: The astroglial glutamate transporter, GLT-1/EAAT-2, is responsible for the majority of glutamate transport in the brain and spinal cord. […] Results from each plate were normalized to the DMSO treated control wells and expressed as fold-induction. EC50 values were calculated using GraphPad Prism software.

[3] = system: luciferase reporter containing the UAG stop codon; assay: Translational read-through luciferase reporter assay, UAG stop codon; type: cell-based; settings: read-out: MaxFold Increase
Description: This assay is described in detail in WO 01/44516 A2. This is a cell-based luciferase reporter assay designed to detect translational read-through via insertion of a translational stop codon within the luciferase coding sequence. In the presence of compounds that promote read-through of translational stop codons, active luciferase is produced and detected via chemiluminescence. We have shown that indoprofen analogs are active in two versions of this assay—one containing a UGA stop codon and one containing a UAG stop codon. The data in the table is from the luciferase reporter containing the UAG stop codon. This is the first stop codon downstream of the improper splice junction between exons 6 and 8 in the human SMN2 transcript.

[4] = system: SMN-containing gems in fibroblast cells from a type 1 SMA patient (3813 cells); assay: Gem count by immunohistochemistry in type 1 SMA patient fibroblasts (3813 cells); type: cell-based, human; settings: for Number of gems per 100 nuclei, Treated Cells: 48 hours
Description: SMN protein can be found in punctate nuclear particles called “gems” (Liu and Dreyfuss, EMBO J. 15(14): 3555-3565 (1996)). In fibroblast cells derived from SMA patients, the number of gems corresponds to disease severity as follows: severe type 1 patients have approximately 5 gems per 100 nuclei; mild type 3 patients have 20-50 gems per 100 nuclei; normal individuals have approximately 100-150 gems per 100 nuclei (Coovert et al., Hum Mol Genet 6(8): 1205-1214 (1997), Young et al., Exp Cell Res 265(2): 252-261 (2001)).
Following these methods, fibroblast cells from a type 1 SMA patient (3813 cells, Coriell Cell Repositories) were treated for 48 hours with the compounds indicated in Table 2 (reference number—structure correlation is provided in Table 1). The cells were then fixed and incubated with a monoclonal antibody against SMN (4B7, Wolstencroft et al., Hum Mol Genet 14:1199-1210 (2005)). A FITC-conjugated anti-mouse secondary antibody was used to visualize the labeled gems.

[5] = Plasma and brain pharmacokinetics in mice; type: in vivo, FVB or CD-1 mice; settings: single dose; for Kp / half-life / AUC: mouse; for Kp: brain and plasma, read-out: Brain/Plasma Ratio
Method: Compounds were formulated in solution using the method of cosolvency as described by Lee et al., Int. J. Pharmaceutics, 253: 111-119 (2003). FVB or CD-1 mice, approximately 5 weeks old, were given a single dose of compound at the indicated concentration. Compounds were administered orally, with the exception of ALB-116638 and ALB-117573, which were administered IV. Three to five mice were euthanized at various times between 15 minutes and 24 hours after dosing and brain and plasma were harvested. Tissues were homogenized in acetonitrile and analyzed on an API 4000 LC/MS/MS system coupled with an Agilent 1100 series liquid chromatograph. All pharmacokinetic analyses were conducted using WinNonlin (Version 4.01; Pharsight, Palo Alto, Calif.) with the exception of brain/plasma ratios, which were calculated using Microsoft Excel 2000. AUC values are the area under the concentration-time curve from time zero to the last measured time point. The half life values are extrapolated from 3-4 time points taken at less than 4 hours after dosing.

SMN = assay: Western blot of SMN in SMA type I fibroblasts (3813 cells); type: cell-based, human; settings: 48 hours, DMSO = 1
Method: Westerns blots were performed using the methods of Mattis et al., Hum Genet 120:589-601(2006)). SMA type I fibroblasts (3813 cells; Coriell Cell Repositories) were treated with compounds for 48 hours. Monoclonal anti-SMN antibody 4B7 (Wolstencroft et al., Hum Mol Genet 14:1199-1210 (2005)) was used to identify SMN. Actin was used as an internal normalization standard and detected with an anti-actin polyclonal rabbit antibody (Sigma-Aldrich). Tobramycin was used for the positive control compound treatment. DMSO is the untreated negative control. Values are presented as the ratio of the signals obtained for SMN and Actin.

[6] = SMN2-linked luciferase reporter, average
[7] = maximum fold increase of reporter signal, average
[8] = brain, 5 mg/kg, oral, read-out: Brain T½ (converted)
[9] = plasma, 5 mg/kg, oral, read-out: Plasma T½ (converted)
[10] = SMN2-linked luciferase reporter, average maximum fold increase
[11] = brain, 5 mg/kg, IV, read-out: Brain T½ (converted)

SMILES: CC(C(N)=O)c1ccc(N2Cc3ccccc3C2=O)cc1 (centres unmarked) [ALB-112171]
- EC50 [1, 6]: 6720 nM
- maximal fold induction [1, 7]: 1.34
- EC50 [2]: 460 nM
- maximal fold induction [2]: 1.9
- maximal fold induction [3]: 2.2

SMILES: COc1ccc2c(c1)C(=O)N(c1ccc(C(C)C(=O)OC(C)(C)C)cc1)C2 (centres unmarked) [ALB-112354]
- EC50 [1, 6]: 801 nM
- maximal fold induction [1, 7]: 1.46
- EC50 [2]: 221 nM
- maximal fold induction [2]: 1.93
- maximal fold induction [3]: 2

SMILES: COc1ccc2c(c1)C(=O)N(c1ccc(C(C)C(=O)O)cc1)C2 (centres unmarked) [ALB-112355]
- EC50 [1, 6]: 83 nM
- maximal fold induction [1, 7]: 1.85
- Number of gems per 100 nuclei, Treated Cells ([4]; 0.45 μM): 5.3 gems per 100 nuclei
- maximal fold induction [3]: 2.7
- Brain AUC ([5]; 5 mg/kg, oral): 570.0 ng·h/g
- Kp ([5]; 5 mg/kg, oral): 0.03
- half-life [5, 8]: 2.6 h
- AUC ([5]; plasma, 5 mg/kg, oral): 21100 ng·h/mL
- half-life [5, 9]: 7.6 h

SMILES: CCCc1ccc2c(c1)C(=O)N(c1ccc(C(C)C(=O)O)cc1)C2 (centres unmarked) [ALB-113310]
- EC50 [1, 6]: 49 nM
- maximal fold induction [1, 7]: 2.1
- Number of gems per 100 nuclei, Treated Cells ([4]; 3 μM): 53.5 gems per 100 nuclei
- maximal fold induction [3]: 3.7
- SMN:Actin Ratio (SMN; 0.1 uM): 4.8
- SMN:Actin Ratio (SMN; 1 uM): 6.2

SMILES: Br.COCC(C)c1ccc(N2Cc3ccc(C)cc3C2=O)cc1 (centres unmarked) [ALB-113967]
- EC50 [1, 6]: 159 nM
- maximal fold induction [1, 7]: 1.54
- maximal fold induction [3]: 2.6
- Brain AUC ([5]; 5 mg/kg, oral): 170.5 ng·h/g
- Kp ([5]; 5 mg/kg, oral): 0.29
- half-life [5, 8]: 1.1 h
- AUC ([5]; plasma, 5 mg/kg, oral): 595 ng·h/mL
- half-life [5, 9]: 1.5 h

SMILES: CC(CN(C)C)c1ccc(N2Cc3ccccc3C2=O)cc1 (centres unmarked) [ALB-113968]
- EC50 [1, 6]: 6030 nM
- maximal fold induction [1, 7]: 1.37
- EC50 [2]: 1270 nM
- maximal fold induction [2]: 1.78

SMILES: COc1ccc2c(c1)C(=O)N(c1ccc(C(C)C)cc1)C2 [ALB-115069]
- EC50 [1, 6]: 81 nM
- maximal fold induction [1, 7]: 1.5
- Number of gems per 100 nuclei, Treated Cells ([4]; 1 μM): 45.25 gems per 100 nuclei
- SMN:Actin Ratio (SMN; 0.1 uM): 4.3
- SMN:Actin Ratio (SMN; 1 uM): 5.7

SMILES: COc1ccc2c(c1)C(=O)N(c1ccc(C(C)(C)C)cc1)C2 [ALB-115210]
- EC50 [1, 6]: 324 nM
- maximal fold induction [1, 7]: 1.47
- maximal fold induction [3]: 2.9
- Brain AUC ([5]; 5 mg/kg, oral): 553.8 ng·h/g
- Brain AUC ([5]; 25 mg/kg, oral): 5950.9 ng·h/g
- Kp ([5]; 5 mg/kg, oral): 51.7
- Kp ([5]; 25 mg/kg, oral): 15
- half-life [5, 8]: 0.6 h
- half-life ([5]; brain, 25 mg/kg, oral, read-out: Brain T½ (converted)): 2.9 h
- AUC ([5]; plasma, 5 mg/kg, oral): 10.7 ng·h/mL
- half-life [5, 9]: 9.4 h
- AUC ([5]; plasma, 25 mg/kg, oral): 397 ng·h/mL
- half-life ([5]; plasma, 25 mg/kg, oral, read-out: Plasma T½ (converted)): 1.1 h

SMILES: CC(C)c1ccc(N2Cc3cc4c(cc3C2=O)OCCO4)cc1 [ALB-115498]
- EC50 [1, 6]: 203 nM
- maximal fold induction [1, 7]: 1.83
- Number of gems per 100 nuclei, Treated Cells ([4]; 1 μM): 14.3 gems per 100 nuclei
- maximal fold induction [2]: 0.86
- Brain AUC ([5]; 5 mg/kg, oral): 163.8 ng·h/g
- Kp ([5]; 5 mg/kg, oral): 3.43
- half-life [5, 8]: 0.5 h
- AUC ([5]; plasma, 5 mg/kg, oral): 47.8 ng·h/mL
- half-life [5, 9]: 0.6 h

SMILES: CC(C)c1ccc(N2Cc3ccc(N(C)C)cc3C2=O)cc1 [ALB-115806]
- EC50 [1, 6]: 41 nM
- maximal fold induction [1, 7]: 1.47
- Number of gems per 100 nuclei, Treated Cells ([4]; 0.4 μM): 8 gems per 100 nuclei
- maximal fold induction [2]: 0.87
- maximal fold induction [3]: 2

SMILES: CC(C)c1ccc(N2Cc3ccc(OC(F)F)cc3C2=O)cc1 [ALB-116244]
- EC50 [1, 6]: 599 nM
- maximal fold induction [1, 10]: 1.57
- Number of gems per 100 nuclei, Treated Cells ([4]; 0.1 μM): 44 gems per 100 nuclei
- maximal fold induction [3]: 2.8

SMILES: CN(C)Cc1ccc(N2Cc3ccccc3C2=O)cc1 [ALB-116255]
- EC50 [1, 6]: 50 nM
- maximal fold induction [1, 7]: 1.09
- maximal fold induction [2]: 1.2

SMILES: COCC(C)c1ccc(N2Cc3cc4c(cc3C2=O)OCCO4)cc1 (centres unmarked) [ALB-116361]
- EC50 [1, 6]: 3560 nM
- maximal fold induction [1, 7]: 1.9
- EC50 [2]: 6.79 nM
- maximal fold induction [2]: 1.54

SMILES: CC(C)c1ccc(N2Cc3ccc(NS(C)(=O)=O)cc3C2=O)cc1 [ALB-116486]
- EC50 [1, 6]: 757 nM
- maximal fold induction [1, 10]: 1.49
- maximal fold induction [2]: 1.17
- maximal fold induction [3]: 2.4

SMILES: CC(C)c1ccc(N2Cc3ccc(N(C)S(C)(=O)=O)cc3C2=O)cc1 [ALB-116638]
- EC50 [1, 6]: 166 nM
- maximal fold induction [1, 10]: 1.51
- Brain AUC ([5]; 5 mg/kg, IV): 537.2 ng·h/g
- half-life [5, 11]: 7.3 h

SMILES: COCc1ccc2c(c1)C(=O)N(c1ccc(C(C)C)cc1)C2 [ALB-116935]
- EC50 [1, 6]: 78 nM
- maximal fold induction [1, 7]: 1.52
- maximal fold induction [3]: 1.9
- Brain AUC ([5]; 5 mg/kg, oral): 338.1 ng·h/g
- half-life [5, 8]: 9.4 h

SMILES: CC(C)c1ccc(N2Cc3ccc(NC(N)=O)cc3C2=O)cc1 [ALB-117573]
- EC50 [1, 6]: 345 nM
- maximal fold induction [1, 10]: 1.67
- maximal fold induction [3]: 4.4
- Brain AUC ([5]; 5 mg/kg, IV): 64.5 ng·h/g
- half-life [5, 11]: 7.4 h

SMILES: CC(C)c1ccc(N2Cc3ccc(C(F)(F)F)cc3C2=O)cc1 [ALB-117902]
- EC50 [1, 6]: 1100 nM
- maximal fold induction [1, 7]: 1.57
- maximal fold induction [3]: 2

SMILES: CCCc1ccc2c(c1)C(=O)N(c1ccc(C(C)C(=O)O)cc1)C2 (centres unmarked) [Example 2, 2-(4-(1-oxo-6-propylisoindolin-2-yl)phenyl)propanoic acid]
- melting point: 175 to 177 °C

SMILES: COCC(C)c1ccc(N2Cc3ccc(OC)cc3C2=O)cc1 (centres unmarked) [Example 4, 6-methoxy-2-(4-(1-methoxypropan-2-yl)phenyl)isoindolin-1-one]
- melting point: 116 to 118 °C

SMILES: CC(C)c1ccc(N2Cc3ccc(Cl)cc3C2=O)cc1 [Example 5, 6-chloro-2-(4-isopropylphenyl)isoindolin-1-one]
- melting point: 206 to 209 °C

SMILES: CC(C)c1ccc(N2Cc3ccc([N+](=O)[O-])cc3C2=O)cc1 [Example 6, 2-(4-isopropylphenyl)-6-nitroisoindolin-1-one]
- melting point: 225 to 227 °C

SMILES: CCCC(CCC)C(=O)O [Positive Control, valproic acid, reference compound]
- Number of gems per 100 nuclei, Positive Control ([4]; 1000 μM valproic acid, same patient fibroblasts): 31 gems per 100 nuclei and 38.7 gems per 100 nuclei

SMILES: NC[C@H]1O[C@H](O[C@H]2[C@H](O)[C@@H](O[C@H]3O[C@H](CO)[C@@H](O)[C@H](N)[C@H]3O)[C@H](N)C[C@@H]2N)[C@H](N)C[C@@H]1O [Tobramycin, reference compound]
- SMN:Actin Ratio (SMN; 320 uM, positive control): 1.5

From patent US8110681B2, “Compounds for the treatment of spinal muscular atrophy and other uses” (The United States of America as represented by the …, priority 2006, dated 2012)
